Measurements taken from patent publication US10214531B2 (Institute for Drug Discovery, LLC, priority 2013, dated 2019).
Structures can show the parent of a compound that is named as a salt.

Target: recombinant human AMCase (Homo sapiens, UniProt Q9BZP6)
Assay: Human AMCase Activity Assay
Format: biochemical
Conditions: recombinant hAMCase, 4-methylumbelliferyl chitobioside substrate, citrate buffer pH 5.2, 37° C., 60 minutes; read-out: Activity (IC50 value key)
Summary of the method: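 Recombinant human enzyme with fluorogenic 4-methylumbelliferyl β-D-N,N′-diacetylchitobioside substrate in citrate buffer, pH 5.2, 60 min at 37 °C in the dark with shaking. Read-out is 4MU fluorescence at 460 nm.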

Sequence of recombinant human AMCase (Q9BZP6 22-476): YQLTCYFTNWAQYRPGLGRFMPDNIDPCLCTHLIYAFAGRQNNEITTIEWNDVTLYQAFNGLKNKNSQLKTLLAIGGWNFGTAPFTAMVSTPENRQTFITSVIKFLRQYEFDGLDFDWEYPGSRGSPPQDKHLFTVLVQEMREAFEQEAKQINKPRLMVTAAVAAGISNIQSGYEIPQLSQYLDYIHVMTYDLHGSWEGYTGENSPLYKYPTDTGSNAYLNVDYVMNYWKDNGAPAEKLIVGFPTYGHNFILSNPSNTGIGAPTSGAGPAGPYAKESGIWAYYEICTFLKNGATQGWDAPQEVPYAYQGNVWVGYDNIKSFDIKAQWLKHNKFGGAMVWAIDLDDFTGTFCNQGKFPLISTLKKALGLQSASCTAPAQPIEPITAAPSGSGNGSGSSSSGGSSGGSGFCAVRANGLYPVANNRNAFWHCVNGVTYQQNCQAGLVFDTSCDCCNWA

SMILES	IC50
Nc1n[nH]c(N2CCC(C(=O)NCc3ccc(Cl)cc3)CC2)n1 [Example 52, 1-(3-amino-1H-1,2,4-triazol-5-yl)-N-(4-chlorobenzyl)piperidine-4-carboxamide]	> 100 µM
COc1ccc(CN(CCc2ccc(Cl)cc2)C2CCN(c3nc(N)n[nH]3)CC2)cc1 [Example 152, 1-(3-amino-1H-1,2,4-triazol-5-yl)-N-(4-chlorophenethyl)-N-(4-methoxybenzyl)piperidin-4-amine]	< 0.1 µM
Cc1ccccc1C(=O)NCC1CCN(c2nc(N)n[nH]2)CC1 [Example 212, N-((1-(3-amino-1H-1,2,4-triazol-5-yl)piperidin-4-yl)methyl)-2-methylbenzamide]	> 100 µM
Nc1n[nH]c(N2CCC(CNC(=O)c3ccc(F)cc3F)CC2)n1 [Example 213, N-((1-(3-amino-1H-1,2,4-triazol-5-yl)piperidin-4-yl)methyl)-2,4-difluorobenzamide]	> 100 µM
CN(Cc1ccc(Cl)cc1)C1CCN(c2nc(N)n[nH]2)CC1 [Example 148, 1-(3-amino-1H-1,2,4-triazol-5-yl)-N-(4-chlorobenzyl)-N-methylpiperidin-4-amine dihydrochloride]	> 100 µM
Nc1n[nH]c(N2CCC(C(=O)NCc3cccc4ccccc34)CC2)n1 [Example 195, 1-(3-amino-1H-1,2,4-triazol-5-yl)-N-(naphthalen-1-ylmethyl)piperidine-4-carboxamide]	> 100 µM
Nc1n[nH]c(N2CCN(CCCc3ccc(Br)cc3)C(CCCO)C2)n1 (stereo not shown) [Example 225, 3-(4-(3-amino-1H-1,2,4-triazol-5-yl)-1-(3-(4-bromophenyl)propyl)piperazin-2-yl)propan-1-ol]	1 to 10 µM
CCC(CN1CCN(c2nc(N)n[nH]2)CC1)Oc1ccc(Br)cc1 (stereo not shown) [Example 60, 5-(4-(2-(4-bromophenoxy)butyl)piperazin-1-yl)-1H-1,2,4-triazol-3-amine]	10 to 100 µM
Nc1n[nH]c(N2CCC(N(CCc3ccc(Cl)cc3)[C@@H](CO)c3ccccc3)CC2)n1 [Example 107, (R)-2-((1-(3-amino-1H-1,2,4-triazol-5-yl)piperidin-4-yl)(4-chlorophenethyl)amino)-2-phenylethan-1-ol]	0.1 to 1 µM
Nc1n[nH]c(N2CCN(C(=O)[C@@H](O)Cc3ccc(Cl)cc3)CC2)n1 [Example 221, (S)-1-(4-(3-amino-1H-1,2,4-triazol-5-yl)piperazin-1-yl)-3-(4-chlorophenyl)-2-hydroxypropan-1-one]	10 to 100 µM
Nc1n[nH]c(N2CCC(C(=O)NCc3ccc(F)cc3)CC2)n1 [Example 49, 1-(3-amino-1H-1,2,4-triazol-5-yl)-N-(4-fluorobenzyl)piperidine-4-carboxamide]	> 100 µM
Cc1cccc(Cl)c1OCCN1CCN(c2nc(N)n[nH]2)CC1 [Example 87, 5-(4-(2-(2-chloro-6-methylphenoxy)ethyl)piperazin-1-yl)-1H-1,2,4-triazol-3-amine]	10 to 100 µM
Nc1n[nH]c(N2CCC(C(=O)NCC3CCC(F)(F)CC3)CC2)n1 [Example 207, 1-(3-amino-1H-1,2,4-triazol-5-yl)-N-((4,4-difluorocyclohexyl)methyl)piperidine-4-carboxamide]	> 100 µM
COc1ccc(C(=O)NCC2CCN(c3nc(N)n[nH]3)CC2)cc1OC [Example 211, N-((1-(3-amino-1H-1,2,4-triazol-5-yl)piperidin-4-yl)methyl)-3,4-dimethoxybenzamide]	> 100 µM
Nc1n[nH]c(N2CCC(CNC(=O)c3cc(Cl)cc(Cl)c3)CC2)n1 [Example 243, N-((1-(3-amino-1H-1,2,4-triazol-5-yl)piperidin-4-yl)methyl)-3,5-dichlorobenzamide]	> 100 µM
COc1ccc(CNC(=O)C2CCN(c3nc(N)n[nH]3)CC2)c(OC)c1 [Example 201, 1-(3-amino-1H-1,2,4-triazol-5-yl)-N-(2,4-dimethoxybenzyl)piperidine-4-carboxamide]	> 100 µM
CC(C)(Oc1ccc(Cl)cc1)C(=O)N1CCN(c2nc(N)n[nH]2)CC1 [Example 258, 1-(4-(3-amino-1H-1,2,4-triazol-5-yl)piperazin-1-yl)-2-(4-chlorophenoxy)-2-methylpropan-1-one]	> 100 µM
CN(CCc1ccccn1)C1CCN(c2nc(N)n[nH]2)CC1 [Example 157, 1-(3-amino-1H-1,2,4-triazol-5-yl)-N-methyl-N-(2-(pyridin-2-yl)ethyl)piperidin-4-amine trihydrochloride]	10 to 100 µM
Nc1n[nH]c(N2CCC(NS(=O)(=O)Cc3cccc(F)c3)CC2)n1 [Example 56, N-(1-(3-amino-1H-1,2,4-triazol-5-yl)piperidin-4-yl)-1-(3-fluorophenyl)methanesulfonamide]	10 to 100 µM
Nc1n[nH]c(N2CCN(C(=O)c3cc4ccccc4o3)CC2)n1 [Example 48, (4-(3-amino-1H-1,2,4-triazol-5-yl)piperazin-1-yl)(benzofuran-2-yl)methanone]	> 100 µM
CN(C1CCN(c2nc(N)n[nH]2)CC1)C(CO)Cc1ccc(Cl)cc1 (stereo not shown) [Example 130, 2-((1-(3-amino-1H-1,2,4-triazol-5-yl)piperidin-4-yl)(methyl)amino)-3-(4-chlorophenyl)propan-1-ol dihydrochloride]	0.1 to 1 µM
Nc1n[nH]c(N2CCC(CNC(=O)c3cccc(F)c3)CC2)n1 [Example 208, N-((1-(3-amino-1H-1,2,4-triazol-5-yl)piperidin-4-yl)methyl)-3-fluorobenzamide]	> 100 µM
Nc1n[nH]c(N2CCC(CNCc3ccc(Br)cc3)CC2)n1 [Example 254, 5-(4-(((4-bromobenzyl)amino)methyl)piperidin-1-yl)-1H-1,2,4-triazol-3-amine]	> 100 µM
CCc1ccc(OC(C)C(=O)N2CCN(c3nc(N)n[nH]3)CC2)cc1 (stereo not shown) [Example 31, 1-(4-(3-amino-1H-1,2,4-triazol-5-yl)piperazin-1-yl)-2-(4-ethylphenoxy)propan-1-one]	> 100 µM
CC(Cc1ccc(Cl)cc1)N(C)C1CCN(c2nc(N)n[nH]2)CC1 (stereo not shown) [Example 141, 1-(3-amino-1H-1,2,4-triazol-5-yl)-N-(1-(4-chlorophenyl)propan-2-yl)-N-methylpiperidin-4-amine dihydrochloride]	0.1 to 1 µM
Cc1ccc(C)c(CNC(=O)C2CCN(c3nc(N)n[nH]3)CC2)c1 [Example 204, 1-(3-amino-1H-1,2,4-triazol-5-yl)-N-(2,5-dimethylbenzyl)piperidine-4-carboxamide]	> 100 µM

Next, values leading:

IC50	SMILES
> 100 µM	Nc1n[nH]c(N2CCN(CCO)CC2)n1 [Example 77, 2-(4-(3-amino-1H-1,2,4-triazol-5-yl)piperazin-1-yl)ethanol]
10 to 100 µM	COc1ccc(CCN(C)C2CCN(c3nc(N)n[nH]3)CC2)cc1OC [Example 173, 1-(3-amino-1H-1,2,4-triazol-5-yl)-N-(3,4-dimethoxyphenethyl)-N-methylpiperidin-4-amine]
< 0.1 µM	Cc1cccc(Cl)c1CN(CCc1ccc(Cl)cc1)C1CCN(c2nc(N)n[nH]2)CC1 [Example 161, 1-(3-amino-1H-1,2,4-triazol-5-yI)-N-(2-chloro-6-methylbenzyl)-N-(4-chlorophenethyl)piperidin-4-amine]
10 to 100 µM	Nc1n[nH]c(N2CCN(CCOc3ccccc3-c3ccccc3)CC2)n1 [Example 83, 5-(4-(2-([1,1′-biphenyl]-2-yloxy)ethyl)piperazin-1-yl)-1H-1,2,4-triazol-3-amine]
10 to 100 µM	COc1ccccc1CCN(C)C1CCN(c2nc(N)n[nH]2)CC1 [Example 172, 1-(3-amino-1H-1,2,4-triazol-5-yl)-N-(2-methoxyphenethyl)-N-methylpiperidin-4-amine]
< 0.1 µM	Nc1n[nH]c(N2CCC(N(CCc3ccc(Cl)cc3)Cc3ccc(-c4ccn[nH]4)cc3)CC2)n1 [Example 115, N-(4-(1H-pyrazol-5-yl)benzyl)-1-(3-amino-1H-1,2,4-triazol-5-yl)-N-(4-chlorophenethyl) piperidin-4-amine dihydrochloride]
10 to 100 µM	CN(CCc1ccccc1OC(F)(F)F)C1CCN(c2nc(N)n[nH]2)CC1 [Example 174, 1-(3-amino-1H-1,2,4-triazol-5-yl)-N-methyl-N-(2-(trifluoromethoxy)phenethyl)piperidin-4-amine]
1 to 10 µM	CN(CCc1ccc(Cl)cc1)C1CCN(c2nc(N)n[nH]2)CC1F (stereo not shown) [Example 150, 1-(3-amino-1H-1,2,4-triazol-5-yl)-N-(4-chlorophenethyl)-3-fluoro-N-methylpiperidin-4-amine]
> 100 µM	CN(CCc1ccc(Br)cc1)C1CCN(c2nc(N)n(C)n2)CC1 [Example 166, 1-(5-amino-1-methyl-1H-1,2,4-triazol-3-yl)-N-(4-bromophenethyl)-N-methylpiperidin-4-amine]
1 to 10 µM	Nc1n[nH]c(N2CCC(NS(=O)(=O)Cc3ccc(Cl)cc3)CC2)n1 [Example 14, N-(1-(3-amino-1H-1,2,4-triazol-5-yl)piperidin-4-yl)-1-(4-chlorophenyl)methanesulfonamide dihydrochloride]
< 0.1 µM	Nc1n[nH]c(N2CCC(N(CCc3ccc(Cl)cc3)Cc3ccc(Cl)cc3Cl)CC2)n1 [Example 163, 1-(3-amino-1H-1,2,4-triazol-5-yl)-N-(4-chlorophenethyl)-N-(2,4-dichlorobenzyl)piperidin-4-amine]
1 to 10 µM	Nc1n[nH]c(N2CCC(NS(=O)(=O)Cc3cccc(Br)c3)CC2)n1 [Example 191, N-(1-(3-amino-1H-1,2,4-triazol-5-yl)piperidin-4-yl)-1-(3-bromophenyl)methanesulfonamide]
> 100 µM	CN(Cc1ccc(Cl)cc1)C(=O)C1(C)CCN(c2nc(N)n[nH]2)CC1 [Example 91, 1-(3-amino-1H-1,2,4-triazol-5-yl)-N-(4-chlorobenzyl)-N,4-dimethyl piperidine-4-carboxamide]
10 to 100 µM	CC(CNC1CCN(c2nc(N)n[nH]2)CC1)c1ccc(Cl)cc1 (stereo not shown) [Example 147, 1-(3-amino-1H-1,2,4-triazol-5-yl)-N-(2-(4-chlorophenyl)propyl)piperidin-4-aminedihydrochloride]
